Assay results from patent US7592457B2 (Korea Research Institute of Chemical Technology, priority 2004, dated 2009).

What was measured:
[1] = system: methamphetamine-induced hyperactivity and stereotypy; assay: Methamphetamine-induced hyperactivity and stereotypy in rats; format: in vivo, rat; settings: 50 mg/kg, i.p., methamphetamine 2 mg/kg
Method: On the day of testing, rats (200-250 g) were put into a transparent polycarbonate cages located in the activity chamber, and adapted for 30 minutes. For a methamphetamine-induced activity, vehicle or compounds according to the present invention was injected (i.p.) 30 minutes before the injection of methamphetamine (2 mg/kg, i.p.). After systemic injection of methamphetamine, total movement distance traveled or total stereotypy was measured over the 120-minutes period using an activity analyzer (TruScan, Coulbourn Instruments, USA).
The inhibitory effect of compounds (50 mg/kg, i.p.) of the present invention on methamphetamine (2 mg/kg, i.p.)-induced hyperactivity in rats is shown in FIGS. 2(a) and 2(b). The inhibitory effects of compounds (50 mg/kg, i.p.) of the present invention on methamphetamine (2 mg/kg, i.p.)-induced stereotypy is shown in FIGS. 3(a) and 3(b).

5-HT2c = biological target: T1, 5-HT2c (Homo sapiens, UniProt P28335); assay: Radioligand binding, 5-HT2c ([3H]Mesulergine); settings: read-out: Binding affinity (Inhibition rate % at 10 μM) 5HT2c
T1 construct: purchased Euroscreen/BioSignal Packard Inc
T1 sequence (P28335 33-458): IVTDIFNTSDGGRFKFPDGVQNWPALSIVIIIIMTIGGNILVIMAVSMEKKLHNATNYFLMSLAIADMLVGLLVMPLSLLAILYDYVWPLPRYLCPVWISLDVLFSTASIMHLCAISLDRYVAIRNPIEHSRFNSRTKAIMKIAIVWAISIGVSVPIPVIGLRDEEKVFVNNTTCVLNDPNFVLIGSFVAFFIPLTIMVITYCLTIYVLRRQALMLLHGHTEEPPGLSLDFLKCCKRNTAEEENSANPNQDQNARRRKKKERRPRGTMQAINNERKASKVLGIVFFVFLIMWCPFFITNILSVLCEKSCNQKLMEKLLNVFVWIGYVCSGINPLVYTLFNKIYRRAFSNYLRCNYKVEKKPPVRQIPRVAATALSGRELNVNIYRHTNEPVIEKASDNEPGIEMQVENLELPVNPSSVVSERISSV
Method: (§1) Radioligand bindings were performed according to the test method provided by the supplier of receptor membrane (Euroscreen/BioSignal Packard Inc.).

[2] = biological target: T2, human serotonin 5-HT6 receptor (Homo sapiens, UniProt P50406); assay: [3H]LSD binding at cloned 5-HT6 receptors; settings: for IC50: [3H]LSD 1.87 nM, cloned receptor membranes, 37° C., 60 min, read-out: IC50; for 5-HT6 affinity compared with known selective antagonists: in words; for inhibition at 10 µM: read-out: Binding affinity (Inhibition rate % at 10 μM) 5HT6
T2 construct: made in house; host or cells: Sf21 insect cells (pBacPAK8 baculovirus vector)

hD2L receptor = biological target: T3, hD2L receptor (Homo sapiens, UniProt P14416); assay: Radioligand binding, dopamine D2 ([3H]spiperone); settings: read-out: Binding affinity (Inhibition rate % at 10 μM) D2
T3 construct: purchased BioSignal Packard Inc., Montreal, Canada

5-HT7 = biological target: T4, 5-HT7 (Homo sapiens, UniProt P34969); assay: Radioligand binding, 5-HT7 ([3H]LSD); settings: for inhibition at 10 µM: read-out: Binding affinity (Inhibition rate % at 10 μM) 5HT7
T4 construct: purchased Euroscreen/BioSignal Packard Inc
Method: as §1

5-HT2a = biological target: T5, 5-HT2a (Homo sapiens, UniProt P28223); assay: Radioligand binding, 5-HT2a ([3H]Ketanserin); settings: read-out: Binding affinity (Inhibition rate % at 10 μM) 5HT2a
T5 construct: purchased Euroscreen/BioSignal Packard Inc
Method: as §1

5-HT6 receptors [3] = biological target: T6, 5-HT6 receptors (Homo sapiens, UniProt P50406); assay: 5-HT-stimulated cAMP accumulation in HeLa cell transfected with human 5-HT6 receptor; format: cell-based; parameters: host or cells: HeLa; settings: for Antagonist activity compared with methiothepin: 5-HT-stimulated cAMP accumulation; for Functional classification at 5-HT6 receptor: inhibition of 5-HT-stimulated cAMP accumulation
Method: By a method (2000) disclosed by Rutledge et al. of MDS Pharma Service (Bothell, Wash., USA, MDSPS PT# 1037161), activity of adenylil cyclase in HeLa cell having transfected with human 5-HT6 receptor was measured. The assay mixture consisted of Hanks' balanced salt solution (HBSS, pH 7.4) containing: 1 mM MgCl2, 1 mM CaCl2, […] 1-methyl-3-isobutylxanthine. Incubation was started by addition of membrane suspension and compounds according to the present invention.

hD4.2 receptor = biological target: T7, hD4.2 receptor (Homo sapiens, UniProt P21917, DEL265-296); assay: Radioligand binding, dopamine D4 ([3H]YM-09151-2); settings: read-out: Binding affinity (Inhibition rate % at 10 μM) D4
T7 construct: purchased BioSignal Packard Inc., Montreal, Canada
T7 sequence (P21917 with tags, fused parts or gaps DEL265-296): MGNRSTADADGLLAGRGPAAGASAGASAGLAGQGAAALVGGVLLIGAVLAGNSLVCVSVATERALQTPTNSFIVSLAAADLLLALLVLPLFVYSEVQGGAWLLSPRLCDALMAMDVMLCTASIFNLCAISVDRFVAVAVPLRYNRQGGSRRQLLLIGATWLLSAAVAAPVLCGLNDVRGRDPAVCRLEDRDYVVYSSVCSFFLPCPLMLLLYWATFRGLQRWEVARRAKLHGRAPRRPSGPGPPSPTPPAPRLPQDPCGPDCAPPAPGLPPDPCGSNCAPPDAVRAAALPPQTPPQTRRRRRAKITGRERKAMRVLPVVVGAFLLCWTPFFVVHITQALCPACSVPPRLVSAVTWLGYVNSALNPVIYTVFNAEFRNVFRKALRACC

hD3 receptor = biological target: T8, hD3 receptor (Homo sapiens, UniProt P35462); assay: Radioligand binding, dopamine D3 ([3H]spiperone); settings: read-out: Binding affinity (Inhibition rate % at 10 μM) D3
T8 construct: purchased BioSignal Packard Inc., Montreal, Canada

D1 = D1 (Homo sapiens, UniProt P21728); assay: Radioligand binding for selectivity, D1; settings: read-out: Binding affinity (Inhibition rate % at 10 μM) D1
5-HT1a = biological target: T9, 5-HT1a (Homo sapiens, UniProt P08908); assay: Radioligand binding, 5-HT1a ([3H]8-OH-DPAT); settings: read-out: Binding affinity (Inhibition rate % at 10 μM) 5HT1a
T9 construct: purchased Euroscreen/BioSignal Packard Inc
T9 sequence (P08908 1-422): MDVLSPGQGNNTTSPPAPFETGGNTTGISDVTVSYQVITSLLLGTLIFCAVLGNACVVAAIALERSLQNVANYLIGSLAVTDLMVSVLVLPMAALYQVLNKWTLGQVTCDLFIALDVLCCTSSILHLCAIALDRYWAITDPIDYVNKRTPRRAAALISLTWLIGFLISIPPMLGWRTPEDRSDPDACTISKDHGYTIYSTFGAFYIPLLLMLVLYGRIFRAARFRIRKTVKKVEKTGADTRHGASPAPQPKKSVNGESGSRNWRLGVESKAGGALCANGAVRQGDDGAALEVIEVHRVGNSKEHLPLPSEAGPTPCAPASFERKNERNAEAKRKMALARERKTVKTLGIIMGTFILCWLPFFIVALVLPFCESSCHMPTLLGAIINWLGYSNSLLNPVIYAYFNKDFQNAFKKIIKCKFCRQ
Method: as §1

5-HT6 receptors [4] = biological target: T6, 5-HT6 receptors; settings: literature; cited from earlier work
5-HT6 receptors [5] = biological target: T6, 5-HT6 receptors; settings: antagonist, literature; cited from earlier work
rats [6] = settings: literature; cited from earlier work
[7] = system: rat maximal electroseizure threshold; settings: literature, cited from earlier work
rats [8] = settings: literature; cited from earlier work; remark: listed apart in the source
rats [9] = settings: water maze, literature; cited from earlier work
[10] = cited from earlier work
[11] = system: extracellular glutamate levels; settings: frontal cortex and dorsal hippocampus, literature; cited from earlier work

T8 sequence (P35462 whole entry): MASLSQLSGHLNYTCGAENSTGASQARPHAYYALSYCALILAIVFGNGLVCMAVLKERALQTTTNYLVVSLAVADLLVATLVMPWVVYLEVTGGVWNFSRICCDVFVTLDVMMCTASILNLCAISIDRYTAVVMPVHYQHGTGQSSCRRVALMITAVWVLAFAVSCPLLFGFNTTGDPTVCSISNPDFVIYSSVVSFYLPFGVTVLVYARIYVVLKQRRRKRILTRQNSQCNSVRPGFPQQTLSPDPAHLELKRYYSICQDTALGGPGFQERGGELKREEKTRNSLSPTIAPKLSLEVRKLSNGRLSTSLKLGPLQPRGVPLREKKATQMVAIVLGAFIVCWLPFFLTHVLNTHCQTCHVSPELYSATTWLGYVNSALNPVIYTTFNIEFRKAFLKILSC
T5 sequence (P28223 whole entry): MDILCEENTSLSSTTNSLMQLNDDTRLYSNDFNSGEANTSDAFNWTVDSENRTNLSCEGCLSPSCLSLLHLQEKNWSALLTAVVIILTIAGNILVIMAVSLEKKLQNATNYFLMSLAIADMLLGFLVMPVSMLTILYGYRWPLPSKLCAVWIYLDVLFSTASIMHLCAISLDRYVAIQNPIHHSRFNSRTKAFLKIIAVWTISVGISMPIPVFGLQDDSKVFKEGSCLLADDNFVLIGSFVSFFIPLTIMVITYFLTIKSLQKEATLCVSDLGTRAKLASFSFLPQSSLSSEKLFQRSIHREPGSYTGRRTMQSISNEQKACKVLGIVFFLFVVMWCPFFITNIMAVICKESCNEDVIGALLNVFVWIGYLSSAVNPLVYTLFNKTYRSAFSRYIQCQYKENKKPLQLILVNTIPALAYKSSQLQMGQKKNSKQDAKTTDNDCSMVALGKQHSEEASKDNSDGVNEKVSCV
T3 sequence (P14416 whole entry): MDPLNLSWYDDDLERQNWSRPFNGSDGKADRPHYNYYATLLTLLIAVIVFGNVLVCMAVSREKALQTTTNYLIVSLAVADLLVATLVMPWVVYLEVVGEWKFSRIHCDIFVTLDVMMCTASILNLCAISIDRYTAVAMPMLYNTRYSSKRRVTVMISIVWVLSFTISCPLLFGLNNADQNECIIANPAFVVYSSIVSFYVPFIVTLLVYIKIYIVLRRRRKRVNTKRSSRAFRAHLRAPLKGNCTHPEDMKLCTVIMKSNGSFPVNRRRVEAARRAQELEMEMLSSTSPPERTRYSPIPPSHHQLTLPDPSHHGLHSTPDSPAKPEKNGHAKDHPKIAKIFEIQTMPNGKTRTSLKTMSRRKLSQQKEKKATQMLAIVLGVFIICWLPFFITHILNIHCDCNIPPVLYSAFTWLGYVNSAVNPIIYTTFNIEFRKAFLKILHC
Sequence of D1 (P21728 whole entry): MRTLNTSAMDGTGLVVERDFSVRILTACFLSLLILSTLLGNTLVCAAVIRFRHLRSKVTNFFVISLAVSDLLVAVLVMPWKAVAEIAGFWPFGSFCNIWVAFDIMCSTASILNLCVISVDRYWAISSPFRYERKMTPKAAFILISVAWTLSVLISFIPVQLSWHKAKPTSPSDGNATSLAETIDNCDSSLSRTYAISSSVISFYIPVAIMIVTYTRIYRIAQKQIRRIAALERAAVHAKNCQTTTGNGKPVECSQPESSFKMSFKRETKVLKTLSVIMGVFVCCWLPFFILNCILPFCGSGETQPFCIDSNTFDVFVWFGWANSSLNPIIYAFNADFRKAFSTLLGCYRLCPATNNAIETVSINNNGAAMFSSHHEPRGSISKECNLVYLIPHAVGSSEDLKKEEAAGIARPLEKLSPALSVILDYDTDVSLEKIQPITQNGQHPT
T4 sequence (P34969 whole entry): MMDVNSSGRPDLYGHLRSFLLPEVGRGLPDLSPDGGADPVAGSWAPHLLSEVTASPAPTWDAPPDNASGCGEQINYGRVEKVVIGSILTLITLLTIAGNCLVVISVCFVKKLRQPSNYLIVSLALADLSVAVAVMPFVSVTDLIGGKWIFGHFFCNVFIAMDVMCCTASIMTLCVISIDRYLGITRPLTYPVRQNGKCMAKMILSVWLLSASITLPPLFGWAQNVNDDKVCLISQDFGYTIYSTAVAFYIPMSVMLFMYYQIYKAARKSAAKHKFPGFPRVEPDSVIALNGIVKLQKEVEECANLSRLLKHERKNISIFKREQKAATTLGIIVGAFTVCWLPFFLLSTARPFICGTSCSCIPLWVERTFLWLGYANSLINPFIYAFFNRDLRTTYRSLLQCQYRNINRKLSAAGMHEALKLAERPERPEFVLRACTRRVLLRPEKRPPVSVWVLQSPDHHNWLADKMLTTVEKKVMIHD
T2 sequence (P50406 whole entry): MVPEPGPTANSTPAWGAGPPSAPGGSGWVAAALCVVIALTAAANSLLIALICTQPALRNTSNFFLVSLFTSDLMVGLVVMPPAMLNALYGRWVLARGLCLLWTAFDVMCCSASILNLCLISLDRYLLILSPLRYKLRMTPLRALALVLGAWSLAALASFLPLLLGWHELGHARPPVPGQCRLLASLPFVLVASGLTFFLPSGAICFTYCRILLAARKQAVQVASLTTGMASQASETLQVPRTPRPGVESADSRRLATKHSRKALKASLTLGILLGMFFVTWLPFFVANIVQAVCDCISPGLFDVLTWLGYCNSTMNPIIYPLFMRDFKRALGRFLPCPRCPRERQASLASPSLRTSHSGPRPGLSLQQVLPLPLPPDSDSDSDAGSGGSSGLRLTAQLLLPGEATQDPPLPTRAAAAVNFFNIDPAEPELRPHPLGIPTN
T6 sequence (P50406 whole entry): as above

With `CC1(c2ccccc2)C(=O)Nc2cc(Cl)cc(Cl)c2C1=O` (stereo not drawn) [Example 1, 5,7-dichloro-3-methyl-3-phenyl-1H-quinoline-2,4-dione] the Antipsychotic effect [1] was “mild antipsychotic effect”, the inhibition at 10 µM (5-HT2c) was 18.3% and the IC50 [2] was 89 nM. The “5-HT6 affinity compared with known selective antagonists” value [2] was “almost same affinities as or better affinities than known selective antagonists”, the inhibition at 10 µM [2] was 91.1% and the inhibition at 10 µM (hD2L receptor) was 1.6%. For the same compound, the inhibition at 10 µM (5-HT7) was 43.2%, the inhibition at 10 µM (5-HT2a) was 6.4% and the “Antagonist activity compared with methiothepin” value (5-HT6 receptors [3]) was “weaker antagonist activity than methiothepin”. The “Functional classification at 5-HT6 receptor” value (5-HT6 receptors [3]) was 5-HT6 receptor antagonist, the inhibition at 10 µM (hD4.2 receptor) was 0% and the inhibition at 10 µM (hD3 receptor) was 12.6%. The inhibition at 10 µM (D1) was 11.4%, the melting point was 222 to 225 °C and the inhibition at 10 µM (5-HT1a) was 16.4%.

For `COc1cc2c(c(OC)c1)C(=O)C(C)(c1ccccc1)C(=O)N2` (stereo not drawn) [Example 8, 5,7-dimethoxy-3-methyl-3-phenyl-1H-quinoline-2,4-dione], the inhibition at 10 µM (5-HT2c) was 23.9%, the IC50 [2] was 118 nM and the inhibition at 10 µM [2] was 74%. For the same compound, the inhibition at 10 µM (hD2L receptor) was 16%, the inhibition at 10 µM (5-HT7) was 23.3% and the inhibition at 10 µM (5-HT2a) was 13.6%. For the same compound, the inhibition at 10 µM (hD4.2 receptor) was 0.8%, the Ki (5-HT6 receptors [4]) was 1.4 nM and the inhibition at 10 µM (hD3 receptor) was 4.6%. The inhibition at 10 µM (D1) was 16.9% and the inhibition at 10 µM (5-HT1a) was 30.2%.

With `CC1(c2ccc(O)cc2)C(=O)Nc2cc(Cl)cc(Cl)c2C1=O` (stereo not drawn) [Example 13, 5,7-dichloro-3-(4-hydroxy-phenyl)-3-methyl-1H-quinoline-2,4-dione] the Antipsychotic effect [1] was “mild antipsychotic effect”, the inhibition at 10 µM (5-HT2c) was 39.4% and the IC50 [2] was 20 nM. The “5-HT6 affinity compared with known selective antagonists” value [2] was “almost same affinities as or better affinities than known selective antagonists”, the inhibition at 10 µM [2] was 89.5% and the inhibition at 10 µM (hD2L receptor) was 35.2%. The inhibition at 10 µM (5-HT7) was 36.7%, the inhibition at 10 µM (5-HT2a) was 48.6% and the “Antagonist activity compared with methiothepin” value (5-HT6 receptors [3]) was “weaker antagonist activity than methiothepin”. The “Functional classification at 5-HT6 receptor” value (5-HT6 receptors [3]) was 5-HT6 receptor antagonist, the inhibition at 10 µM (hD4.2 receptor) was 0% and the inhibition at 10 µM (hD3 receptor) was 27.8%. The inhibition at 10 µM (D1) was 51%, the melting point was 222 to 223 °C and the inhibition at 10 µM (5-HT1a) was 33.9%.

For `COc1ccc2c(c1)c(CCN(C)C)cn2S(=O)(=O)c1ccccc1` [MS-245], the pA2 (5-HT6 receptors [5]) is listed as 8.88.

For `CNc1cc(NS(=O)(=O)c2ccc(N)cc2)nc(NC)n1` [Ro 04-6790], the “behavior of yawning, stretching, and chewing” value (rats [6]) is listed as “capable of inducing this same effect”, the anticonvulsant activity [7] is listed as “possess anticonvulsant activity” and the food intake (rats [8]) is listed as “decreased food intake”.

In the case of `COc1ccc(NS(=O)(=O)c2sc3ccc(Cl)cc3c2C)cc1N1CCNCC1` [SB-271046, reference compound], the “retention of a previously learned task” value (rats [9]) is listed as “significant improvement in retention of a previously learned task”, the inhibition at 10 µM (5-HT2c) is listed as 64.3% and the oral bioavailability ([10]; literature) is listed as over 80%. The inhibition at 10 µM (hD2L receptor) was 17.3%, the “Binding affinity (Inhibition rate % at 10 μM) 5HT7” value (5-HT7; 10 μM) was 34.9% and the extracellular glutamate levels [11] was “increased extracellular glutamate levels in frontal cortex and dorsal hippocampus by several fold”. The anticonvulsant activity [7] was “possess anticonvulsant activity”, the inhibition at 10 µM (5-HT2a) was 60.1% and the inhibition at 10 µM (hD4.2 receptor) was 14.2%. For the same compound, the inhibition at 10 µM (hD3 receptor) was 66.2%, the inhibition at 10 µM (D1) was 49.7% and the inhibition at 10 µM (5-HT1a) was 84.2%.

For `COc1ccc(S(=O)(=O)Nc2cc(Br)cc(F)c2Br)cc1N1CCNCC1` [SB-357134], the “retention of a previously learned task” value (rats [9]) is listed as “significant improvement in retention of a previously learned task”, the “clearance (in words)” value ([10]; in vivo) is listed as “low clearance rate” and the seizure threshold ([7]; rat maximal electroseizure threshold, oral administration) is listed as “potent and dose-dependent increase in seizure threshold”.
